Values of other authors, collected in patent US20220054380A1, “CANN[…] ESTERS FOR COSMETIC OR EDIBLE COMPOSITIONS” (EPM (IP), Inc., priority 2018, published 2022).

How the values were obtained:
rats [1] = conditions: compared with CBDA, 5-HT1A receptor-dependent
rats [2] = conditions: compared with CBDA, 5-HT1A receptor-dependent; remark: listed apart in the source
rats [3] = conditions: oral ingestion, low dose (1 mg/kg), two rat models

Compound: C=C(C)C1CCC(C)=C[C@H]1c1c(O)cc(CCCCC)c(C(=O)OC)c1O (stereo partly drawn) [HU-580, Cannabidiolic Acid Methyl Ester]
- potency at suppressing signs of stress-induced anxiety (rats [1]): greater potency than CBDA
- potency at suppressing signs of acute and anticipatory nausea (rats [2]): greater potency than CBDA
- anti-depressant effect (rats [3]): potent anti-depressant effect
